Data from patent publication US20240228476A1, “INHIBITORS OF PROTEIN TYROSINE PHOSPHATASE, COMPOSITIONS, AND METHODS OF USE” (BRISTOL-MYERS SQUIBB COMPANY, priority 2022, published 2024).
Read-outs that look alike come from different tables or passages of the source.

Columns and labels:
[1] = target: T1, PTPN2 (Homo sapiens, UniProt P17706); assay: PTPN2 biochemical assay (PhosphoSens, substrate AQT0264); settings: PhosphoSens substrate AQT0264 20 μM, room temperature; read-out: PTPN2 BCHEM IC50
T1 sequence (P17706 1-415): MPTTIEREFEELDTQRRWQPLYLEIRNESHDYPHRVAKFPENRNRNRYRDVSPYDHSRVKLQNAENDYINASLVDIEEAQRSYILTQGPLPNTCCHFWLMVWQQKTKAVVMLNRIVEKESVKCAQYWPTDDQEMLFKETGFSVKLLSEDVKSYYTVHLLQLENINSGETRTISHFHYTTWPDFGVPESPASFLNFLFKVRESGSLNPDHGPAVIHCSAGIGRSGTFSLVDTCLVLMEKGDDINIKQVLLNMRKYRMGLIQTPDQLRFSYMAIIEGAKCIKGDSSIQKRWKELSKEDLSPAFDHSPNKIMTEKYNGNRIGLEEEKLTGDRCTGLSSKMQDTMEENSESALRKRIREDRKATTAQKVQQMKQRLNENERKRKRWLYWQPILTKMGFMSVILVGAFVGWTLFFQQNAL
Procedure: A PhosphoSens® kinase assay was performed as described by the vendor (AssayQuant Technologies, Marlborough, MA). Briefly, 1000× solutions of compounds were prepared in DMSO via serial dilution of the 10 mM DMSO stocks using 3-fold intervals in a 384-well reagent plate. 50 nL of the compound dilution series was then added to the corresponding wells of a 384-well assay plate. 40 mL of 1.25× substrate (AQT0264) in 1× assay buffer (50 mM HEPES pH 7.5, 500 μM EGTA, […] MgCl2, 0.01% Brij-35, 1% Glycerol, 1 mM DTT, and 0.2 mg/mL BSA) was transferred to each well of the assay plate to achieve a final substrate concentration of 20 μM. Finally, […] of 5×PTPN2 enzyme stock was added to each well of the assay plate for a final enzyme concentration of […]. Reaction progress curves were collected by sampling fluorescence intensity at the excitation wavelength 360 nm (λex360) and emission wavelength 480 nm (λem480) every 71 seconds for one hour using a Synergy H4 plate reader (BioTek Instruments/Agilent Technologies, Winooski, VT) at room temperature.
(§1) For IC50 data, High DDT concentration and/or DiFMUP substrate assays were used; a skilled artisan may use either assay.

[2] = test system: B16-F10 cells; assay: Cell proliferation assay (CellTiter-Glo) in B16-F10 cells with IFN-gamma; type: cell-based; settings: mouse IFN-gamma 10 ng/mL, read-out: PTPN2 Prolif 5d B16F10 EC50
Procedure: B16-F10 cells (ATCC, Manassas, VA, #CRL-6475) were cultured in DMEM growth medium (ThermoFisher Scientific, Waltham, MA, #11995-040) supplemented with 10% heat inactivated FBS (ThermoFisher Scientific, #16140-071) and 1% pen/strep (ThermoFisher Scientific, #15140-122). The cells were seeded into two white opaque 384-well tissue culture treated microplates (PerkinElmer, Waltham, MA, #6007688) at a density of 100 cells/well in 20 uL total volume and incubated overnight at 37 C and 5% CO2. 30 nL of compounds dissolved in DMSO were then transferred from a source plate into target wells with the Echo650 acoustic liquid handler (Beckman Coulter, Indianapolis, IN). Negative control wells received 30 nL of DMSO only (0.15% final concentration). Plates were returned to the incubator for 1 hour and then cells treated with either 5 uL of growth medium or 5 uL of growth medium containing 50 ng/ml of recombinant mouse IFN-gamma protein (R&D Systems, Minneapolis, MN, #485-MI/CF, 10 ng/mL final concentration) using the Assist automated pipetting platform (INTEGRA Biosciences, Hudson, NH). Plates were incubated at 37 C for 4 days and cell proliferation assayed with the CellTiter-Glo reagent (Promega, Madison, WI, #G7573, 25 uL per well). […] Off-target compound mediated cytotoxicity was identified by checking for growth inhibition in the absence of IFNg.

[3] = test system: phospho-STAT1 (Tyr701); assay: Phospho-STAT1 (Tyr701) HTRF assay in B16-F10 cells; type: cell-based; settings: mouse IFN-gamma 100 ng/ml, 1 hour, read-out: pSTAT1 HTRF B16 EC50
Procedure: B16-F10 cells (ATCC, Manassas, VA, #CRL-6475) were cultured in DMEM growth medium (ThermoFisher Scientific, Waltham, MA, #11995-040) supplemented with 10% heat inactivated FBS (ThermoFisher Scientific, #16140-071) and 1% pen/strep (ThermoFisher Scientific, #15140-122). The cells were seeded into a white opaque 384-well tissue culture treated microplate (PerkinElmer, Waltham, MA, #6007688) at a density of 10,000 cells/well in 20 uL total volume and incubated overnight at 37 C and 5% CO2. 30 nL of compounds dissolved in DMSO were then transferred from a source plate into target wells with the Echo650 acoustic liquid handler (Beckman Coulter, Indianapolis, IN). Negative control wells received 30 nL of DMSO only (0.15% final concentration). Plates were returned to the incubator for 1 hour and then cells treated with either 5 uL of growth medium or 5 uL of growth medium containing 500 ng/ml of recombinant mouse IFN-gamma protein (R&D Systems, Minneapolis, MN, #485-MI/CF, 100 ng/ml final concentration) using the Assist automated pipetting platform (INTEGRA Biosciences, Hudson, NH). Plates were incubated at 37 C for 1 hour and assayed for phosphorylated STAT1 protein levels with the phospho-STAT1 (Tyr701) HTRF kit (Cisbio, Bedford, MA, #63ADK026PEH) according to manufacturer's instructions. HTRF signal intensity was collected with the En Vision 2105 plate reader (PerkinElmer) 24 hours later and analyzed with the Dotmatics software platform to calculate compound IC50 values.

[4] = target: T1, PTPN2; assay: Phosphatase activity assay using DiFMUP as substrate; type: biochemical; design: purchased MilliporeSigma SRP5075; settings: 10 mM DTT, PTPN2 0.15 nM, room temperature, read-out: PTPN2 BCHEM DIFMUP IC50
Procedure: The PTPN2 biochemical assay was performed as follows, a 5× stock solution of human PTPN2 (SRP5075, MilliporeSigma, Burlington, MA) and a 1.25× stock solution of DiFMUP (D6567, ThermoFisher Scientific, Waltham, MA), were prepared in 1× reaction buffer consisting of 50 mM HEPES, pH 7.4, 1 mM EDTA, 150 mM NaCl, 0.2 mg/mL BSA, 100 U/mL catalase and 10 mM DTT. […] of the DiFMUP substrate solution, for a final concentration of […] DiFMUP substrate, was added to a Corning 3574 384-well, white, non-binding surface microtiter plate containing […] of serially diluted test compounds prepared in DMSO. The reactions were started with the addition of […] of the enzyme solution, for a final PTPN2 concentration of 0.15 nM, and monitored every 105 seconds for 60 minutes at λEX 360/λEM 460 in a BioTek Synergy HTX plate reader (Agilent Technologies, Santa Clara, CA) at room temperature. The initial linear portions of the progress curves were fit according to a linear equation to yield the slopes and converted to % inhibition based on a value of 100% activity for the no inhibitor treated control. IC50 values of each compound were obtained by fitting the % inhibition-compound concentration curves using Dotmatics software (Dotmatics, Bishops Stortford, Hertfordshire, England)
as §1

IC50 [1] [nM] | EC50 ([2]; 120 h) [nM] | EC50 [3] [nM] | IC50 [4] [nM] | Compound | EC50 [2] [nM]
70 | 4240 | 2560 | 400 | O=C1CN(c2c(O)cc(CNc3ccc(-c4ccccc4)nc3)cc2F)S(=O)(=O)N1 [EXAMPLE 6, 5-[2-fluoro-6-hydroxy-4-[[(6-phenyl-3-pyridyl)amino]methyl]phenyl]-1,1-dioxo-1,2,5-thiadiazolidin-3-one] | 
4 | 470 | 1200 | 20 | Cc1cc(NCc2cc(O)c(N3CC(=O)NS3(=O)=O)c(F)c2)ncn1 [EXAMPLE 26, 5-[2-fluoro-6-hydroxy-4-[[(6-methylpyrimidin-4-yl)amino]methyl]phenyl]-1,1-dioxo-1,2,5-thiadiazolidin-3-one] | 

Compound | IC50 [1] [nM] | EC50 ([2]; 120 h) [nM] | EC50 [3] [nM] | IC50 [4] [nM] | EC50 [2] [nM]
6-[[3-fluoro-5-hydroxy-4-(1,1,4-trioxo-1,2,5-thiadiazolidin-2-yl)phenyl]methylamino]-4-methyl-pyridine-3-carbonitrile [EXAMPLE 5] | 20 |  | 4470 | 20 | 4760
